Data reported in patent US10251395B2, “Substituted furano-/thienocycloalkylamino-2-pyrimidine derivatives and use thereof for controlling undesired plant growth” (Bayer CropScience Aktiengesellschaft, priority 2015, dated 2019).

Legend:
Veronica persica [1] = assay: Post-emergence herbicidal effect; format: in vivo; conditions: assessed visually after about 3 weeks vs untreated controls
Procedure, shortened: (§1)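 Sow in sandy loam; grow in greenhouse 2–3 wk; spray one-leaf plants with WP or EC suspension/emulsion (600–800 L/ha water, 0.2% wetter); hold ~3 wk under optimal conditions; rate visually vs untreated (0–100%).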

Polygonum convolvulus [2] = assay: Post-emergence herbicidal effect; format: in vivo; conditions: assessed visually after about 3 weeks vs untreated controls
Procedure, shortened: as §1

Avena fatua [3] = assay: Post-emergence herbicidal effect; format: in vivo; conditions: assessed visually after about 3 weeks vs untreated controls
Procedure, shortened: as §1

Ipomoea purpurea [4] = assay: Post-emergence herbicidal effect; format: in vivo; conditions: assessed visually after about 3 weeks vs untreated controls
Procedure, shortened: as §1

Alopecurus myosuroides [5] = assay: Post-emergence herbicidal effect; format: in vivo; conditions: assessed visually after about 3 weeks vs untreated controls
Procedure, shortened: as §1

Lolium multiflorum [6] = assay: Post-emergence herbicidal effect; format: in vivo; conditions: assessed visually after about 3 weeks vs untreated controls
Procedure, shortened: as §1

Amaranthus retroflexus [7] = assay: Post-emergence herbicidal effect; format: in vivo; conditions: assessed visually after about 3 weeks vs untreated controls
Procedure, shortened: as §1

Viola tricolor [8] = assay: Post-emergence herbicidal effect; format: in vivo; conditions: assessed visually after about 3 weeks vs untreated controls
Procedure, shortened: as §1

Echinochloa crus-galli [9] = assay: Post-emergence herbicidal effect; format: in vivo; conditions: assessed visually after about 3 weeks vs untreated controls
Procedure, shortened: as §1

Matricaria inodora [10] = assay: Post-emergence herbicidal effect; format: in vivo; conditions: assessed visually after about 3 weeks vs untreated controls
Procedure, shortened: as §1

Stellaria media [11] = assay: Post-emergence herbicidal effect; format: in vivo; conditions: assessed visually after about 3 weeks vs untreated controls
Procedure, shortened: as §1

Setaria viridis [12] = assay: Post-emergence herbicidal effect; format: in vivo; conditions: assessed visually after about 3 weeks vs untreated controls
Procedure, shortened: as §1

Abutilon theophrasti [13] = assay: Post-emergence herbicidal effect; format: in vivo; conditions: assessed visually after about 3 weeks vs untreated controls
Procedure, shortened: as §1

logP (HCOOH) = format: physicochemical; conditions: for chromatographic logP: HCOOH (formic acid)
From the text: Table 2 (physicochemical characterization of selected synthesis examples)

Veronica persica [14] = assay: Pre-emergence herbicidal effect; format: in vivo; conditions: scored visually after 3 weeks
Procedure, shortened: (§2)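 Pre-em soil-surface spray; sandy loam, seeds covered with soil. WP/EC, aq. suspension/emulsion, 600–800 L/ha, +0.2% wetting agent. GH 3 wk; visual % activity vs untreated (100% = dead).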

Polygonum convolvulus [15] = assay: Pre-emergence herbicidal effect; format: in vivo; conditions: scored visually after 3 weeks
Procedure, shortened: as §2

Avena fatua [16] = assay: Pre-emergence herbicidal effect; format: in vivo; conditions: Dosage 320 g/ha, scored visually after 3 weeks
Procedure, shortened: as §2

Ipomoea purpurea [17] = assay: Pre-emergence herbicidal effect; format: in vivo; conditions: scored visually after 3 weeks
Procedure, shortened: as §2

Alopecurus myosuroides [18] = assay: Pre-emergence herbicidal effect; format: in vivo; conditions: scored visually after 3 weeks
Procedure, shortened: as §2

Lolium multiflorum [19] = assay: Pre-emergence herbicidal effect; format: in vivo; conditions: scored visually after 3 weeks
Procedure, shortened: as §2

Amaranthus retroflexus [20] = assay: Pre-emergence herbicidal effect; format: in vivo; conditions: scored visually after 3 weeks
Procedure, shortened: as §2

Viola tricolor [21] = assay: Pre-emergence herbicidal effect; format: in vivo; conditions: scored visually after 3 weeks
Procedure, shortened: as §2

Echinochloa crus-galli [22] = assay: Pre-emergence herbicidal effect; format: in vivo; conditions: scored visually after 3 weeks
Procedure, shortened: as §2

Matricaria inodora [23] = assay: Pre-emergence herbicidal effect; format: in vivo; conditions: scored visually after 3 weeks
Procedure, shortened: as §2

Stellaria media [24] = assay: Pre-emergence herbicidal effect; format: in vivo; conditions: scored visually after 3 weeks
Procedure, shortened: as §2

Setaria viridis [25] = assay: Pre-emergence herbicidal effect; format: in vivo; conditions: scored visually after 3 weeks
Procedure, shortened: as §2

Abutilon theophrasti [26] = assay: Pre-emergence herbicidal effect; format: in vivo; conditions: scored visually after 3 weeks
Procedure, shortened: as §2

Cyperus esculentus = assay: Pre-emergence herbicidal effect; format: in vivo; conditions: Dosage 320 g/ha, scored visually after 3 weeks
Procedure, shortened: as §2

Compound: Cc1cc2c(s1)CCCC2Nc1ncc(C(F)(F)F)c(N)n1 (racemic) [compound 257]
- post-emergence efficacy VERPE (Veronica persica [1]; 320 g/ha): 100%
- post-emergence efficacy POLCO (Polygonum convolvulus [2]; 80 g/ha): 60%
- post-emergence efficacy POLCO (Polygonum convolvulus [2]; 320 g/ha): 80%
- post-emergence efficacy AVEFA (Avena fatua [3]; 80 g/ha): 70%
- post-emergence efficacy AVEFA (Avena fatua [3]; 320 g/ha): 100%
- post-emergence efficacy PHBPU (Ipomoea purpurea [4]; 80 g/ha): 80%
- post-emergence efficacy PHBPU (Ipomoea purpurea [4]; 320 g/ha): 90%
- post-emergence efficacy ALOMY (Alopecurus myosuroides [5]; 80 g/ha): 70%
- post-emergence efficacy ALOMY (Alopecurus myosuroides [5]; 320 g/ha): 90%
- post-emergence efficacy LOLMU (Lolium multiflorum [6]; 80 g/ha): 100%
- post-emergence efficacy LOLMU (Lolium multiflorum [6]; 320 g/ha): 100%
- post-emergence efficacy AMARE (Amaranthus retroflexus [7]; 80 g/ha): 80%
- post-emergence efficacy AMARE (Amaranthus retroflexus [7]; 320 g/ha): 90%
- post-emergence efficacy VIOTR (Viola tricolor [8]; 80 g/ha): 90%
- post-emergence efficacy VIOTR (Viola tricolor [8]; 320 g/ha): 90%
- post-emergence efficacy ECHCG (Echinochloa crus-galli [9]; 80 g/ha): 90%
- post-emergence efficacy ECHCG (Echinochloa crus-galli [9]; 320 g/ha): 100%
- post-emergence efficacy MATIN (Matricaria inodora [10]; 80 g/ha): 90%
- post-emergence efficacy MATIN (Matricaria inodora [10]; 320 g/ha): 90%
- post-emergence efficacy STEME (Stellaria media [11]; 80 g/ha): 80%
- post-emergence efficacy STEME (Stellaria media [11]; 320 g/ha): 100%
- post-emergence efficacy SETVI (Setaria viridis [12]; 80 g/ha): 90%
- post-emergence efficacy SETVI (Setaria viridis [12]; 320 g/ha): 90%
- post-emergence efficacy ABUTH (Abutilon theophrasti [13]; 80 g/ha): 90%
- post-emergence efficacy ABUTH (Abutilon theophrasti [13]; 320 g/ha): 90%
- logP (HCOOH) (logP (HCOOH); HCOOH): oily; logP (HCOOH): 2.02; 1H NMR (CDCl3, 400 MHZ, δ in ppm): 2.10 (m, 1H, 1H of
- VERPE pre-emergence efficacy (herbicidal activity) (Veronica persica [14]; Dosage 80 g/ha): 100%
- VERPE pre-emergence efficacy (herbicidal activity) (Veronica persica [14]; Dosage 320 g/ha): 100%
- POLCO pre-emergence efficacy (herbicidal activity) (Polygonum convolvulus [15]; Dosage 80 g/ha): 100%
- POLCO pre-emergence efficacy (herbicidal activity) (Polygonum convolvulus [15]; Dosage 320 g/ha): 100%
- AVEFA pre-emergence efficacy (herbicidal activity) (Avena fatua [16]): 100%
- PHBPU pre-emergence efficacy (herbicidal activity) (Ipomoea purpurea [17]; Dosage 320 g/ha): 100%
- ALOMY pre-emergence efficacy (herbicidal activity) (Alopecurus myosuroides [18]; Dosage 80 g/ha): 100%
- ALOMY pre-emergence efficacy (herbicidal activity) (Alopecurus myosuroides [18]; Dosage 320 g/ha): 100%
- LOLMU pre-emergence efficacy (herbicidal activity) (Lolium multiflorum [19]; Dosage 80 g/ha): 100%
- LOLMU pre-emergence efficacy (herbicidal activity) (Lolium multiflorum [19]; Dosage 320 g/ha): 100%
- AMARE pre-emergence efficacy (herbicidal activity) (Amaranthus retroflexus [20]; Dosage 80 g/ha): 100%
- AMARE pre-emergence efficacy (herbicidal activity) (Amaranthus retroflexus [20]; Dosage 320 g/ha): 100%
- VIOTR pre-emergence efficacy (herbicidal activity) (Viola tricolor [21]; Dosage 80 g/ha): 100%
- VIOTR pre-emergence efficacy (herbicidal activity) (Viola tricolor [21]; Dosage 320 g/ha): 100%
- ECHCG pre-emergence efficacy (herbicidal activity) (Echinochloa crus-galli [22]; Dosage 80 g/ha): 100%
- ECHCG pre-emergence efficacy (herbicidal activity) (Echinochloa crus-galli [22]; Dosage 320 g/ha): 100%
- MATIN pre-emergence efficacy (herbicidal activity) (Matricaria inodora [23]; Dosage 80 g/ha): 100%
- MATIN pre-emergence efficacy (herbicidal activity) (Matricaria inodora [23]; Dosage 320 g/ha): 100%
- STEME pre-emergence efficacy (herbicidal activity) (Stellaria media [24]; Dosage 80 g/ha): 100%
- STEME pre-emergence efficacy (herbicidal activity) (Stellaria media [24]; Dosage 320 g/ha): 100%
- SETVI pre-emergence efficacy (herbicidal activity) (Setaria viridis [25]; Dosage 80 g/ha): 100%
- SETVI pre-emergence efficacy (herbicidal activity) (Setaria viridis [25]; Dosage 320 g/ha): 100%
- ABUTH pre-emergence efficacy (herbicidal activity) (Abutilon theophrasti [26]; Dosage 80 g/ha): 70%
- ABUTH pre-emergence efficacy (herbicidal activity) (Abutilon theophrasti [26]; Dosage 320 g/ha): 100%

Compound: Cc1cc2c(o1)CC(C)(C)CC2Nc1ncc(C(F)(F)F)c(N)n1 (stereo not shown) [compound 21, 5-(Trifluoromethyl)-N2-(2,6,6-trimethyl-4,5,6,7-tetrahydro-1-benzofuran-4-yl)pyrimidine-2,4-diamine]
- melting point: 182.6 °C
- chromatographic logP (logP (HCOOH)): 2.23

Compound: Cc1cc2c(s1)CCC[C@H]2Nc1ncc(C(F)(F)F)c(N)n1 [compound 47, N2-[(4R)-2-Methyl-4,5,6,7-tetrahydrobenzothiophen-4-yl]-5-(trifluoromethyl)pyrimidine-2,4-diamine]
- post-emergence efficacy VERPE (Veronica persica [1]; 80 g/ha): 100%
- post-emergence efficacy POLCO (Polygonum convolvulus [2]; 80 g/ha): 80%
- post-emergence efficacy POLCO (Polygonum convolvulus [2]; 320 g/ha): 80%
- post-emergence efficacy AVEFA (Avena fatua [3]; 80 g/ha): 100%
- post-emergence efficacy AVEFA (Avena fatua [3]; 320 g/ha): 90%
- post-emergence efficacy PHBPU (Ipomoea purpurea [4]; 80 g/ha): 100%
- post-emergence efficacy PHBPU (Ipomoea purpurea [4]; 320 g/ha): 100%
- post-emergence efficacy ALOMY (Alopecurus myosuroides [5]; 320 g/ha): 100%
- post-emergence efficacy LOLMU (Lolium multiflorum [6]; 320 g/ha): 80%
- post-emergence efficacy AMARE (Amaranthus retroflexus [7]; 320 g/ha): 90%
- post-emergence efficacy VIOTR (Viola tricolor [8]; 80 g/ha): 100%
- post-emergence efficacy VIOTR (Viola tricolor [8]; 320 g/ha): 100%
- post-emergence efficacy ECHCG (Echinochloa crus-galli [9]; 80 g/ha): 100%
- post-emergence efficacy ECHCG (Echinochloa crus-galli [9]; 320 g/ha): 100%
- post-emergence efficacy MATIN (Matricaria inodora [10]; 80 g/ha): 90%
- post-emergence efficacy MATIN (Matricaria inodora [10]; 320 g/ha): 100%
- post-emergence efficacy STEME (Stellaria media [11]; 80 g/ha): 100%
- post-emergence efficacy STEME (Stellaria media [11]; 320 g/ha): 100%
- post-emergence efficacy SETVI (Setaria viridis [12]; 80 g/ha): 90%
- post-emergence efficacy SETVI (Setaria viridis [12]; 320 g/ha): 90%
- post-emergence efficacy ABUTH (Abutilon theophrasti [13]; 80 g/ha): 90%
- post-emergence efficacy ABUTH (Abutilon theophrasti [13]; 320 g/ha): 90%
- chromatographic logP (logP (HCOOH)): 2.62
- VERPE pre-emergence efficacy (herbicidal activity) (Veronica persica [14]; Dosage 80 g/ha): 100%
- VERPE pre-emergence efficacy (herbicidal activity) (Veronica persica [14]; Dosage 320 g/ha): 100%
- POLCO pre-emergence efficacy (herbicidal activity) (Polygonum convolvulus [15]; Dosage 80 g/ha): 100%
- POLCO pre-emergence efficacy (herbicidal activity) (Polygonum convolvulus [15]; Dosage 320 g/ha): 100%
- AVEFA pre-emergence efficacy (herbicidal activity) (Avena fatua [16]): 100%
- PHBPU pre-emergence efficacy (herbicidal activity) (Ipomoea purpurea [17]; Dosage 80 g/ha): 100%
- PHBPU pre-emergence efficacy (herbicidal activity) (Ipomoea purpurea [17]; Dosage 320 g/ha): 100%
- ALOMY pre-emergence efficacy (herbicidal activity) (Alopecurus myosuroides [18]; Dosage 80 g/ha): 80%
- ALOMY pre-emergence efficacy (herbicidal activity) (Alopecurus myosuroides [18]; Dosage 320 g/ha): 100%
- LOLMU pre-emergence efficacy (herbicidal activity) (Lolium multiflorum [19]; Dosage 320 g/ha): 100%
- AMARE pre-emergence efficacy (herbicidal activity) (Amaranthus retroflexus [20]; Dosage 80 g/ha): 100%
- AMARE pre-emergence efficacy (herbicidal activity) (Amaranthus retroflexus [20]; Dosage 320 g/ha): 100%
- VIOTR pre-emergence efficacy (herbicidal activity) (Viola tricolor [21]; Dosage 80 g/ha): 100%
- VIOTR pre-emergence efficacy (herbicidal activity) (Viola tricolor [21]; Dosage 320 g/ha): 100%
- CYPES pre-emergence efficacy (herbicidal activity) (Cyperus esculentus): 80%
- ECHCG pre-emergence efficacy (herbicidal activity) (Echinochloa crus-galli [22]; Dosage 80 g/ha): 100%
- ECHCG pre-emergence efficacy (herbicidal activity) (Echinochloa crus-galli [22]; Dosage 320 g/ha): 100%
- MATIN pre-emergence efficacy (herbicidal activity) (Matricaria inodora [23]; Dosage 80 g/ha): 100%
- MATIN pre-emergence efficacy (herbicidal activity) (Matricaria inodora [23]; Dosage 320 g/ha): 100%
- STEME pre-emergence efficacy (herbicidal activity) (Stellaria media [24]; Dosage 80 g/ha): 100%
- STEME pre-emergence efficacy (herbicidal activity) (Stellaria media [24]; Dosage 320 g/ha): 100%
- SETVI pre-emergence efficacy (herbicidal activity) (Setaria viridis [25]; Dosage 80 g/ha): 100%
- SETVI pre-emergence efficacy (herbicidal activity) (Setaria viridis [25]; Dosage 320 g/ha): 100%
- ABUTH pre-emergence efficacy (herbicidal activity) (Abutilon theophrasti [26]; Dosage 80 g/ha): 80%
- ABUTH pre-emergence efficacy (herbicidal activity) (Abutilon theophrasti [26]; Dosage 320 g/ha): 100%
